# Measurements as given in ChEMBL document CHEMBL1146941, “Synthesis of pyrazinamide Mannich bases and its antitubercular properties” (2006).
# Columns and labels:
# [1] = system: Mycobacterium tuberculosis; experiment: Antimycobacterial activity against Mycobacterium tuberculosis; type: functional
# Vero [2] = experiment: Cytotoxicity against Vero cells by MTT assay; type: functional; conditions: Chlorocebus sabaeus
# Vero [3] = experiment: Selectivity index (CC50/MIC90); type: functional
# [4] = system: Mycobacterium tuberculosis; experiment: Activity against Mycobacterium tuberculosis ATCC 35801 in lungs of CD1 mice at 100 mg/kg; type: functional, Lung
# [5] = system: Mycobacterium tuberculosis; experiment: Activity against Mycobacterium tuberculosis ATCC 35801 in spleen of CD1 mice at 100 mg/kg; type: functional
SMILES,MIC90 [1] [µg/mL],CC50 (Vero [2]) [µg/mL],Selectivity index (Vero [3]),also measured
O=C(NCN1CCN(c2ccccn2)CC1)c1cnccn1,12.5,–,–,–
O=C(NCN1CCN(c2ccc(C(F)(F)F)cc2)CC1)c1cnccn1,0.78,> 62.5,>80,–
CN1CCN(CNC(=O)c2cnccn2)CC1,12.5,–,–,Log10 cfu [4]: 6.02; Log10 cfu [5]: 7.18
O=C(NCN1CCN(Cc2ccccc2)CC1)c1cnccn1,6.25,–,–,–
O=C(NCN1CCN(c2cccc(Cl)c2)CC1)c1cnccn1,3.12,–,–,–
O=C(NCN1CCN(c2ccc(Cl)cc2)CC1)c1cnccn1,3.12,–,–,–
COc1ccc(N2CCN(CNC(=O)c3cnccn3)CC2)cc1,12.5,–,–,–
O=C(NCN1CCN(c2ccc([N+](=O)[O-])cc2)CC1)c1cnccn1,6.25,–,–,–
COc1cccc(N2CCN(CNC(=O)c3cnccn3)CC2)c1,12.5,–,–,–
O=C(NCN1CCN(c2ccccc2)CC1)c1cnccn1,6.25,–,–,–
CCn1cc(C(=O)O)c(=O)c2cc(F)c(N3CCN(CNC(=O)c4cnccn4)CC3)cc21,1.76,> 62.5,>40,–
O=C(NCN1CCN(c2cc3c(cc2F)c(=O)c(C(=O)O)cn3C2CC2)CC1)c1cnccn1,3.13,> 62.5,>20,–
CCn1cc(C(=O)O)c(=O)c2cc(F)c(N3CCN(CNC(=O)c4cnccn4)CC3)c(F)c21,0.78,> 62.5,>80,–
O=C(NCN1CCN(c2ncccn2)CC1)c1cnccn1,> 12.5,–,–,–
COc1ccccc1N1CCN(CNC(=O)c2cnccn2)CC1,12.5,–,–,–
O=C(NCN1CCN(c2ccc(F)cc2)CC1)c1cnccn1,1.76,> 62.5,>40,–
COc1c(N2CCN(CNC(=O)c3cnccn3)C(C)C2)c(F)cc2c(=O)c(C(=O)O)cn(C3CC3)c12 (stereo unspecified),–,> 62.5,>160,–
NC(=O)c1cnccn1 [PYRAZINAMIDE],12.5,–,–,–
